Patent publication EP0203441A2, “Substituted benzoquinolizines, process for their preparation and their use as medicaments” (BAYER AG, priority 1985, dated 1986)

Tested on: ketaminanästhesierten Katze
Experiment: Effect on venous capacity (plethysmograph) and mean arterial pressure in the anaesthetised cat
Type: in vivo
Conditions: Dosis 0,1 mg/kg i.v., ketamine-anaesthetised cat
Description: Die Wirkung der erfindungsgemäßen Stoffe auf die Venenkapazität wird an der narkotisierten Katze mittels eines Plethysmographen gemessen. Als Vergleich wird in jedem Versuch als Standardsubstanz Natrium-Nitroprussid untersucht.

In the case of `CCOc1ccc2c(c1)CCN1CCC(Nc3ccccc3NC(C)=O)CC21` (single isomer, unassigned) [Beispiel 26], the art.Mitteldruck is reported as “Ø”.
